# Results reported in ChEMBL document CHEMBL4418302, “C-myc ligands capable of dimerizing in an aqueous solution, and methods of using same” (2016).
# Activity calls are given as the source filed them. The calls are words filed in the database; no cut-off is given here.
# Legend:
# [1] = biological target: Myc proto-oncogene protein (Homo sapiens, UniProt P01106); assay: Binding affinity to recombinant full-length DDK-tagged human c-Myc expressed in HEK293T cells assessed as inhibition of Max/c-Myc protein-protein interaction incubated for 1 hr by ELISA; type: cell-based
# Chain of Myc proto-oncogene protein (P01106 whole entry): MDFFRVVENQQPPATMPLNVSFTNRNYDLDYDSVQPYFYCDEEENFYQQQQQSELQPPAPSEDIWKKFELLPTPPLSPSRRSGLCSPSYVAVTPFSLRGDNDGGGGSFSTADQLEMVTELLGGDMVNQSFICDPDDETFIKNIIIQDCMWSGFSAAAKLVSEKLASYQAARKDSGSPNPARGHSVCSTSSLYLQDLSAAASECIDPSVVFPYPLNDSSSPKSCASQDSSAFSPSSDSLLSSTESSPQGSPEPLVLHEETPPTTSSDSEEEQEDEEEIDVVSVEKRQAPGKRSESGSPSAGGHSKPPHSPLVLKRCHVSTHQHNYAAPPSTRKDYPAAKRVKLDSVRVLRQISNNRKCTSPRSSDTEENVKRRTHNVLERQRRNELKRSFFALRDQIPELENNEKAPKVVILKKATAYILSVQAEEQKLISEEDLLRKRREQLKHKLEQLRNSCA
# [2] = test system: MV4-11; assay: Antiproliferative activity against human MV411 cells up to 30 uM incubated for 3 days by Cell-Titer 96 aqueous one solution cell proliferation assay; type: functional, cell-based
# [3] = test system: Daudi; assay: Antiproliferative activity against human Daudi cells incubated for 3 days by Cell-Titer 96 aqueous one solution cell proliferation assay; type: functional, cell-based; details: 72 h
# [4] = test system: Daudi; assay: Antiproliferative activity against human Daudi cells up to 30 uM incubated for 3 days by Cell-Titer 96 aqueous one solution cell proliferation assay; type: functional, cell-based
# [5] = test system: MV4-11; assay: Antiproliferative activity against human MV411 cells incubated for 3 days by Cell-Titer 96 aqueous one solution cell proliferation assay; type: functional, cell-based; details: MV4-11, 72 h
# [6] = test system: K562; assay: Antiproliferative activity against human K562 cells up to 30 uM incubated for 3 days by Cell-Titer 96 aqueous one solution cell proliferation assay; type: functional, cell-based
# [7] = test system: K562; assay: Antiproliferative activity against human K562 cells incubated for 3 days by Cell-Titer 96 aqueous one solution cell proliferation assay; type: functional, cell-based; details: K562, 72 h
Compound,IC50 [1],Activity [2],IC50 [3],Activity [4],IC50 [5],Activity [6],IC50 [7]
NC(=O)c1ccccc1Nc1ccc([N+](=O)[O-])c2nonc12,> 30 µM,,,,,,
CCc1ccc(/C=C2\SC(=O)N(CCNC(=O)[C@H]3C[C@H]4C=C[C@@H]3C4)C2=O)cc1,> 30 µM,,,,,,
CCc1ccc(/C=C2\SC(=O)N(CC[C@H]3C[C@@H]4C[C@H]3[C@@H](O)[C@H]4O)C2=O)cc1,> 30 µM,,,,,,
O=C(NCc1cccc(B(O)O)c1)c1ccccc1Nc1ccc([N+](=O)[O-])c2nonc12,,inactive,> 30 µM,inactive,> 30 µM,inactive,> 30 µM
O=C(NCc1ccc(B(O)O)cc1)c1ccc(Nc2ccc([N+](=O)[O-])c3nonc23)cc1,,inactive,,inactive,,inactive,
O=C(NCc1ccc(B(O)O)cc1)c1ccccc1Nc1ccc([N+](=O)[O-])c2nonc12,> 30 µM,inactive,> 30 µM,inactive,> 30 µM,inactive,> 30 µM
"CCc1ccc(/C=C2\SC(=O)N(CC[C@H]3C[C@H]4C=C[C@@H]3C4)C2=O)cc1 (single isomer, unassigned)",> 30 µM,,,,,,
CCc1ccc(/C=C2\SC(=O)N(CCNC(=O)[C@H]3C[C@@H]4C[C@H]3[C@@H](O)[C@H]4O)C2=O)cc1,> 30 µM,inactive,> 30 µM,inactive,> 30 µM,inactive,> 30 µM
CCc1ccc(/C=C2\SC(=O)NC2=O)cc1,> 30 µM,,,,,,
